The text below walks through data of patent US11970498B2, “CDK2 inhibitors” (BLUEPRINT MEDICINES CORPORATION, priority 2021, dated 2024).

The target of one assay is T1, CDK1/Cyclin B1, GST-tag (Homo sapiens, UniProt P06493).
T1 construct: GST
Nature of the assay: CDK1/Cyclin B1 biochemical phosphorylation assay (Caliper mobility shift). The settings on record: apparent IC50; 1.0 mM ATP or ATP Km; 1.5 nM enzyme; 25° C. The procedure, abridged:
(§1)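 7.5 µM 5-FAM-QSPKKG-CONH2 peptide phosphorylated by CDK2/Cyclin E (1.25 nM) or GST-CDK1/Cyclin B1 (1.5 nM) at 1.0 mM ATP or ATP Km, in HEPES pH 7.5, MgCl2, Brij-35, DTT, 1% DMSO, 25 °C to 10–20% conversion. EDTA stop; Caliper mobility-shift readout; apparent IC50 from percent activity vs log concentration.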

For another assay, the target named is CDK2/Cyclin E (Homo sapiens, UniProt P24941). Nature of the assay: CDK2/Cyclin E biochemical phosphorylation assay (Caliper mobility shift). The note with it: apparent IC50; 1.0 mM ATP or ATP Km; 1.25 nM enzyme; 25° C.; read-out: CDK2/cyclin E1 IC50. The method in brief: as §1

pIC50: −log10 of the molar value. Some results are limits rather than exact numbers.

T1 sequence (P06493 whole entry): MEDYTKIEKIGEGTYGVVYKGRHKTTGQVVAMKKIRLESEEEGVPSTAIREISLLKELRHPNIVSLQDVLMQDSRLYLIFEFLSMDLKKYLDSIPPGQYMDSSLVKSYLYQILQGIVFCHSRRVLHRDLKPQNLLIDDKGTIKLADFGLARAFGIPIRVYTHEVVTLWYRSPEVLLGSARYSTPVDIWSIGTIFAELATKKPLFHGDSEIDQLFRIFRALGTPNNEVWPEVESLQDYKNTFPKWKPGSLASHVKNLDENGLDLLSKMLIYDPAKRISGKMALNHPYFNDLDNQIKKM
T1 sequence (P14635 whole entry partner): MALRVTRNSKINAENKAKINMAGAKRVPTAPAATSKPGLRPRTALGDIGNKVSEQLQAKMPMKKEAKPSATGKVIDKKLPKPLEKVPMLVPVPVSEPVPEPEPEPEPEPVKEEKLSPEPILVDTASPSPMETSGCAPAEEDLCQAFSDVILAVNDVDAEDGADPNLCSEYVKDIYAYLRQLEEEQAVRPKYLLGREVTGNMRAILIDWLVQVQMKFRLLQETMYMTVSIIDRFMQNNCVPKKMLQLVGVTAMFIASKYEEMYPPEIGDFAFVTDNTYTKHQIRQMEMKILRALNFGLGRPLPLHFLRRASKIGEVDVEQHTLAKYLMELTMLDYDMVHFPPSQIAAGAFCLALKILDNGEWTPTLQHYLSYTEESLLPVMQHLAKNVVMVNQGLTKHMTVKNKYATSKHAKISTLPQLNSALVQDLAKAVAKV

Take `C[C@@H](c1ccc(F)cn1)n1ncc2ncc(Nc3cc(OC(F)F)[nH]n3)nc21` [Example 48, (S)-N-(5-(difluoromethoxy)-1H-pyrazol-3-yl)-1-(1-(5-fluoropyridin-2-yl)ethyl)-1H-pyrazolo[3,4-b]pyrazin-6-amine]: the pIC50 was not above 6.30 at CDK1/Cyclin B1, GST-tag and not below 8.00 on CDK2/Cyclin E.
As to `C[C@@H](c1cccnc1F)n1ncc2ncc(Nc3cc(OC(F)F)[nH]n3)nc21` [Example 8, (S)—N-(5-(difluoromethoxy)-1H-pyrazol-3-yl)-1-(1-(2-fluoropyridin-3-yl)ethyl)-1H-pyrazolo[3,4-b]pyrazin-6-amine], the pIC50 is more than 7.00 on CDK1/Cyclin B1, GST-tag and not below 8.00 at CDK2/Cyclin E.
The matching figures for `C[C@@H](c1ncccc1F)n1ncc2ncc(Nc3cc(OC(F)F)[nH]n3)nc21` [Example 50, (S)-N-(5-(difluoromethoxy)-1H-pyrazol-3-yl)-1-(1-(3-fluoropyridin-2-yl)ethyl)-1H-pyrazolo[3,4-b]pyrazin-6-amine]: not above 6.30 and not below 8.00.
Turning to `C[C@@H](c1ccccn1)n1ncc2ncc(Nc3cc(OC(F)F)[nH]n3)nc21` [Example 4, (S)—N-(5-(difluoromethoxy)-1H-pyrazol-3-yl)-1-(1-(pyridin-2-yl)ethyl)-1H-pyrazolo[3,4-b]pyrazin-6-amine], the pIC50 on CDK1/Cyclin B1, GST-tag is not above 6.30; on CDK2/Cyclin E it was not below 8.00.
On the same counts, the results for `Cc1nn(Cc2cccnc2)c2nc(Nc3cc(OC(F)F)[nH]n3)cnc12` [Example 84, N-(5-(difluoromethoxy)-1H-pyrazol-3-yl)-3-methyl-1-(pyridin-3-ylmethyl)-1H-pyrazolo[3,4-b]pyrazin-6-amine] are not above 6.30 and not below 8.00.
In the case of `FC(F)Oc1cc(Nc2cnc3cnn(CC45CC(C4)C5)c3n2)n[nH]1` [Example 106, 1-(bicyclo[1.1.1]pentan-1-ylmethyl)-N-(5-(difluoromethoxy)-1H-pyrazol-3-yl)-1H-pyrazolo[3,4-b]pyrazin-6-amine], the pIC50 is 6.30 to 7.00 at CDK1/Cyclin B1, GST-tag and not below 8.00 on CDK2/Cyclin E.
On the same counts, the results for `FC(F)Oc1cc(Nc2cnc3cnn([C@@H](C(F)F)C4CCOCC4)c3n2)n[nH]1` (single isomer, unassigned) [Example 29, (R)-1-(2,2-difluoro-1-(tetrahydro-2H-pyran-4-yl)ethyl)-N-(5-(difluoromethoxy)-1H-pyrazol-3-yl)-1H-pyrazolo[3,4-b]pyrazin-6-amine or (S)-1-(2,2-difluoro-1-(tetrahydro-2H-pyran-4-yl)ethyl)-N-(5-(difluoromethoxy)-1H-pyrazol-3-yl)-1H-pyrazolo[3,4-b]pyrazin-6-amine] are not above 6.30 and not below 8.00.
On to `C[C@@H](c1cnccc1F)n1ncc2ncc(Nc3cc(OC(F)F)[nH]n3)nc21` (single isomer, unassigned) [Example 174, (R)-N-(5-(difluoromethoxy)-1H-pyrazol-3-yl)-1-(1-(4-fluoropyridin-3-yl)ethyl)-1H-pyrazolo[3,4-b]pyrazin-6-amine or (S)-N-(5-(difluoromethoxy)-1H-pyrazol-3-yl)-1-(1-(4-fluoropyridin-3-yl)ethyl)-1H-pyrazolo[3,4-b]pyrazin-6-amine], for which the pIC50 at CDK1/Cyclin B1, GST-tag was not above 6.30; at CDK2/Cyclin E, less than 7.00.
For the compound `C[C@@H]([C@H]1CCOC1)n1ncc2ncc(Nc3cc(OC(F)F)[nH]n3)nc21` (single isomer, unassigned) [Example 12], the pIC50 on CDK1/Cyclin B1, GST-tag was not above 6.30; at CDK2/Cyclin E it was 7.00 to 7.52.
On to `C[C@@H]([C@H]1CCCOC1)n1ncc2ncc(Nc3cc(OC(F)F)[nH]n3)nc21` (single isomer, unassigned) [Example 216], for which the pIC50 on CDK1/Cyclin B1, GST-tag was not above 6.30; at CDK2/Cyclin E, 7.70 to 8.00.
On the same counts, the results for `O[C@H]1CC[C@@H](n2ncc3ncc(Nc4cc(OC(F)F)[nH]n4)nc32)CC1` [Example 57, (1s,4s)-4-(6-((5-(difluoromethoxy)-1Hpyrazol-3-yl)amino)-1Hpyrazolo[3,4-b]pyrazin-1-yl)cyclohexan-1-ol] are not above 6.30 and 7.00 to 7.52.
